This is an account of results in patent US20080269293A1, “PYRAZOLE DERIVATIVES AS ANTI-PLATELET AND ANTI-THROMBOTIC AGENTS” (Pfizer Inc., priority 2006, published 2008).

pIC50: −log10 of the molar value. Some results are limits rather than exact numbers.

This assay deals with T1, platelet P2Y1 receptor (Homo sapiens, UniProt P47900).
T1 construct: expressed in transfected cells
Put plainly: P2Y1 receptor binding assay ([β-33P]-2-thiomethyl ADP). The following applies: binding of 0.3 nM [β-33P]-2-thiomethyl ADP, hP2Y1 expressing 132N1 cell membrane, 25° C., 60 minutes.

T1 sequence (P47900 whole entry): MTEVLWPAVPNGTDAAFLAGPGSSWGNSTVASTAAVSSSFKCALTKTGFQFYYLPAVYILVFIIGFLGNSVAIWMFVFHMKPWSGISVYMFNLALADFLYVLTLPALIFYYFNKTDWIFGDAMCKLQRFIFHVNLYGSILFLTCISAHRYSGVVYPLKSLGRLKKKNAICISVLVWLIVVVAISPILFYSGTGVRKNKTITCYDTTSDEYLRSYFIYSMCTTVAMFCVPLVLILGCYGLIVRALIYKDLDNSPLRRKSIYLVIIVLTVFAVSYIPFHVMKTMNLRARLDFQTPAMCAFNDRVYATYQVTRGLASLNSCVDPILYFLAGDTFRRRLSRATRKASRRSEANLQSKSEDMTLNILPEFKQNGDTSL

A word on the pIC50: it is the IC50 on a negative log10 scale, so that one unit is a factor of ten. Read a low pIC50 as a high IC50. In turn, `Cc1cc(Oc2ccccc2NC(=O)Nc2ccc(C3CCOCC3)cc2)n(-c2ccccc2Cl)n1` [Example 128, 1-(2-(1-(2-chlorophenyl)-3-methyl-1H-pyrazol-5-yloxy)phenyl)-3-(4-(tetrahydro-2H-pyran-4-yl)phenyl)urea] had a pIC50 of 6.12.

Turning to `Cc1cc(Oc2ccccc2NC(=O)Nc2ccc(C3CCS(=O)(=O)CC3)cc2)n(-c2ccccc2Cl)n1` [Example 129], the pIC50 was below 5.00.
